# According to PubChem BioAssay AID2060606 (Molecular Pharmacology Branch, DTP, NCI, 2025):
# Tested on: 922993-354-T-J3-PDC complex spheroids, viability, % test/control
# Assay: Anticancer human tumor 922993-354-T-J3-PDC patient-derived endometrial carcinoma cell line growth inhibition [CLK]
# Conditions: for IC50: curve of first compound; for viability, T/C: stronger effect = lower value
# Method in brief: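 Multi-cell-type spheroids combined patient-derived tumor cells with HUVEC endothelial cells and human mesenchymal stem cells. Paired agents were dosed in half-log steps down from about clinical Cmax, or from 10 microM where Cmax was unknown.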
# [1] = second compound 0.0316 µM, first compound 0.0316 µM
# [2] = second compound 0.0316 µM, first compound 0.1 µM
# [3] = second compound 0.1 µM, first compound 0.0316 µM
# [4] = second compound 0.1 µM, first compound 0.1 µM
# [5] = second compound 0.316 µM, first compound 0.0316 µM
# [6] = second compound 0.316 µM, first compound 0.1 µM
# [7] = second compound 1 µM, first compound 0.0316 µM
# [8] = second compound 1 µM, first compound 0.1 µM
# [9] = second compound 3.16 µM, first compound 0.0316 µM
# [10] = second compound 3.16 µM, first compound 0.1 µM
# [11] = second compound 10 µM, first compound 0.0316 µM
# [12] = second compound 10 µM, first compound 0.1 µM
# [13] = second compound 0.0316 µM, first compound 0.316 µM
# [14] = second compound 0.0316 µM, first compound 1 µM
# [15] = second compound 0.0316 µM, first compound 3.16 µM
# [16] = second compound 0.0316 µM, first compound 10 µM
# [17] = second compound 0.1 µM, first compound 0.316 µM
# [18] = second compound 0.1 µM, first compound 1 µM
# [19] = second compound 0.1 µM, first compound 3.16 µM
# [20] = second compound 0.1 µM, first compound 10 µM
# [21] = second compound 0.316 µM, first compound 0.316 µM
# [22] = second compound 0.316 µM, first compound 1 µM
# [23] = second compound 0.316 µM, first compound 3.16 µM
# [24] = second compound 0.316 µM, first compound 10 µM
# [25] = second compound 1 µM, first compound 0.316 µM
# [26] = second compound 1 µM, first compound 1 µM
# [27] = second compound 1 µM, first compound 3.16 µM
# [28] = second compound 1 µM, first compound 10 µM
# [29] = second compound 3.16 µM, first compound 0.316 µM
# [30] = second compound 3.16 µM, first compound 1 µM
# [31] = second compound 3.16 µM, first compound 3.16 µM
# [32] = second compound 3.16 µM, first compound 10 µM
# [33] = second compound 10 µM, first compound 0.316 µM
# [34] = second compound 10 µM, first compound 1 µM
# [35] = second compound 10 µM, first compound 3.16 µM
# [36] = second compound 10 µM, first compound 10 µM
# 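Note: spheroids exposed to the agents for 7 days before readout.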
compound,measurement,setting,value
Cn1ncnc1[C@H]1c2n[nH]c(=O)c3cc(F)cc(c23)N[C@@H]1c1ccc(F)cc1 + CN1CCN(c2cc(C(=O)Nc3cc4cc(-c5cnn(C)c5)ccc4cn3)ccn2)CC1,IC50,second compound 0.0316 µM,> 100 nM
same,IC50,second compound 0.1 µM,> 100 nM
same,IC50,second compound 0.316 µM,< 0.316 nM
same,IC50,second compound 1 µM,< 0.316 nM
same,IC50,second compound 3.16 µM,< 0.316 nM
same,IC50,second compound 10 µM,< 0.316 nM
same,"viability, T/C","second compound 0.0316 µM, first compound 0.000316 µM",126%
same,"viability, T/C","second compound 0.0316 µM, first compound 0.001 µM",121%
same,"viability, T/C","second compound 0.0316 µM, first compound 0.00316 µM",104%
same,"viability, T/C","second compound 0.0316 µM, first compound 0.01 µM",119%
same,"viability, T/C",[1],119%
same,"viability, T/C",[2],75.3%
same,"viability, T/C","second compound 0.1 µM, first compound 0.000316 µM",110%
same,"viability, T/C","second compound 0.1 µM, first compound 0.001 µM",101%
same,"viability, T/C","second compound 0.1 µM, first compound 0.00316 µM",102%
same,"viability, T/C","second compound 0.1 µM, first compound 0.01 µM",103%
same,"viability, T/C",[3],116%
same,"viability, T/C",[4],75.3%
same,"viability, T/C","second compound 0.316 µM, first compound 0.000316 µM",43.1%
same,"viability, T/C","second compound 0.316 µM, first compound 0.001 µM",35.2%
same,"viability, T/C","second compound 0.316 µM, first compound 0.00316 µM",41.5%
same,"viability, T/C","second compound 0.316 µM, first compound 0.01 µM",32.7%
same,"viability, T/C",[5],35.6%
same,"viability, T/C",[6],20.4%
same,"viability, T/C","second compound 1 µM, first compound 0.000316 µM",0.13%
same,"viability, T/C","second compound 1 µM, first compound 0.001 µM",0.83%
same,"viability, T/C","second compound 1 µM, first compound 0.00316 µM",0.12%
same,"viability, T/C","second compound 1 µM, first compound 0.01 µM",0.32%
same,"viability, T/C",[7],0.11%
same,"viability, T/C",[8],0.89%
same,"viability, T/C","second compound 3.16 µM, first compound 0.000316 µM",0.12%
same,"viability, T/C","second compound 3.16 µM, first compound 0.001 µM",1.22%
same,"viability, T/C","second compound 3.16 µM, first compound 0.00316 µM",0.35%
same,"viability, T/C","second compound 3.16 µM, first compound 0.01 µM",0.07%
same,"viability, T/C",[9],0.95%
same,"viability, T/C",[10],1.3%
same,"viability, T/C","second compound 10 µM, first compound 0.000316 µM",0.13%
same,"viability, T/C","second compound 10 µM, first compound 0.001 µM",0.16%
same,"viability, T/C","second compound 10 µM, first compound 0.00316 µM",0.88%
same,"viability, T/C","second compound 10 µM, first compound 0.01 µM",0.13%
same,"viability, T/C",[11],1.94%
same,"viability, T/C",[12],2.55%
Nc1ccn(C2OC(CO)C(O)C2(F)F)c(=O)n1 (stereo unspecified) + CN1CCN(c2cc(C(=O)Nc3cc4cc(-c5cnn(C)c5)ccc4cn3)ccn2)CC1,IC50,second compound 0.0316 µM,< 31.6 nM
same,IC50,second compound 0.1 µM,< 31.6 nM
same,IC50,second compound 0.316 µM,< 31.6 nM
same,IC50,second compound 1 µM,< 31.6 nM
same,IC50,second compound 3.16 µM,< 31.6 nM
same,IC50,second compound 10 µM,< 31.6 nM
same,"viability, T/C",[1],20.2%
same,"viability, T/C",[2],13.4%
same,"viability, T/C",[13],16.6%
same,"viability, T/C",[14],15.9%
same,"viability, T/C",[15],16.6%
same,"viability, T/C",[16],17.2%
same,"viability, T/C",[3],23.5%
same,"viability, T/C",[4],16.3%
same,"viability, T/C",[17],15.7%
same,"viability, T/C",[18],17.2%
same,"viability, T/C",[19],16.9%
same,"viability, T/C",[20],18.4%
same,"viability, T/C",[5],14%
same,"viability, T/C",[6],11.3%
same,"viability, T/C",[21],10.3%
same,"viability, T/C",[22],11.6%
same,"viability, T/C",[23],12.5%
same,"viability, T/C",[24],11.5%
same,"viability, T/C",[7],0.1%
same,"viability, T/C",[8],0.12%
same,"viability, T/C",[25],0.13%
same,"viability, T/C",[26],0.06%
same,"viability, T/C",[27],1.89%
same,"viability, T/C",[28],0.07%
same,"viability, T/C",[9],0.11%
same,"viability, T/C",[10],2.53%
same,"viability, T/C",[29],1.37%
same,"viability, T/C",[30],0.13%
same,"viability, T/C",[31],0.85%
same,"viability, T/C",[32],2.45%
same,"viability, T/C",[11],0.16%
same,"viability, T/C",[12],1.71%
same,"viability, T/C",[33],1.82%
same,"viability, T/C",[34],0.17%
same,"viability, T/C",[35],0.67%
same,"viability, T/C",[36],1.33%
O=c1[nH]cc(F)c(=O)[nH]1 + CN1CCN(c2cc(C(=O)Nc3cc4cc(-c5cnn(C)c5)ccc4cn3)ccn2)CC1,IC50,second compound 0.0316 µM,7950 nM
same,IC50,second compound 0.1 µM,4390 nM
same,IC50,second compound 0.316 µM,< 31.6 nM
same,IC50,second compound 1 µM,< 31.6 nM
same,IC50,second compound 3.16 µM,< 31.6 nM
same,IC50,second compound 10 µM,< 31.6 nM
same,"viability, T/C",[1],104%
same,"viability, T/C",[2],99.5%
same,"viability, T/C",[13],95.2%
same,"viability, T/C",[14],114%
same,"viability, T/C",[15],65.6%
same,"viability, T/C",[16],46.1%
same,"viability, T/C",[3],102%
same,"viability, T/C",[4],87.2%
same,"viability, T/C",[17],94.1%
same,"viability, T/C",[18],80.5%
same,"viability, T/C",[19],54.2%
same,"viability, T/C",[20],38.9%
same,"viability, T/C",[5],34.3%
same,"viability, T/C",[6],34.3%
same,"viability, T/C",[21],33.3%
same,"viability, T/C",[22],31.3%
same,"viability, T/C",[23],38%
same,"viability, T/C",[24],24.6%
same,"viability, T/C",[7],0.11%
same,"viability, T/C",[8],0.38%
same,"viability, T/C",[25],0.11%
same,"viability, T/C",[26],0.78%
same,"viability, T/C",[27],1.96%
same,"viability, T/C",[28],1.27%
same,"viability, T/C",[9],0.09%
same,"viability, T/C",[10],0.09%
same,"viability, T/C",[29],1.19%
same,"viability, T/C",[30],0.76%
same,"viability, T/C",[31],0.73%
same,"viability, T/C",[32],2.29%
same,"viability, T/C",[11],0.09%
same,"viability, T/C",[12],0.11%
same,"viability, T/C",[33],0.93%
same,"viability, T/C",[34],0.13%
same,"viability, T/C",[35],2.73%
same,"viability, T/C",[36],2.68%
